Experimental data taken from patent publication US8486996B2, “Aroylfuranes and aroylthiophenes” (Basilea Pharmaceutica AG, priority 2006, dated 2013).
Read-outs that look alike come from different tables or passages of the source.

Assays:
Format in all cases: cell-based
[1] = Hoechst 33342 nuclear staining (48 h read-out)
Experimental: (§1) A) Hoechst 33342 Nuclear Staining
(§2) This assay is performed in 96 well tissue culture plates. Appropriate number of cells (adherent cells: 3-5*10^3, suspension cells: 8-10*10^3) are being seeded out in 80 μl complete medium. Adherent cells are incubated for 24 h for proper spreading out before addition of test compounds while suspension cells are immediately treated with test compounds after seeding out. The test compounds are added in 20 μl complete medium containing max 5% DMSO. The final compound concentrations in the assays are in the range of 0.001 μM-10 μM. After 24 h or 48 h incubation at culture conditions, 10 μl medium containing Hoechst 33342 dye (Sigma B-2261) at 2-5 μg/ml are added to each well. The assay plates are then further incubated for 30 minutes and subsequently analyzed with a standard inverted fluorescence microscope.
(§3) The readout allows the determination of the fraction of apoptotic nuclei as well as other morphological criteria specific for apoptosis as a function of the treatment. The scores A, B, C and D are explained at the end of the Table.

tumor cells [2] = test: Hoechst 33342 nuclear staining (48 h read-out)
Experimental: as §1, §2, §3

[3] = MTS proliferation assay (72 h read-out); conditions: MRC5 cells
Experimental: (§4) B) MTS Proliferation Assay
(§5) The assay is performed in 96 well tissue culture plates. The cells (range: 1.5*10^3-10^4) are seeded out in 80 μl complete medium 24 h prior to compound treatment. The test compounds are added in 20 μl complete medium containing max 5% DMSO. The final compound concentrations in the assays are in the range of 0.001 μM-10 μM. The assay plates are incubated for 72 h at culture conditions. The MTS reagent is prepared according to the manufacturer's protocol (Promega G1111). 20 μl MTS reagent are added to each well; the assay plates are quickly spun and incubated for another 3 h at culture conditions. Subsequently, the plates are shortly shaked and absorption measured with a microplate-reader at 492 nm. The scores A, B, C and D are explained at the end of the Table.

tumor cells [4] = test: MTS proliferation assay (72 h read-out)
Experimental: as §4, §5

[5] = Mitochondrial membrane potential, JC-1 (read-out 48 h); conditions: PBL, JC-1, 48 h
Experimental: (§6) D) Mitochondrial Membrane Potential
as §2, with “The final compound concentrations in the assays are in the range of 0.001 μM-10 μM.” left out, “JC-1 (Molecular Probes, T-3168)” for “Hoechst 33342 dye (Sigma B-2261)”, “microscope by using the FITC and TRITC filters.” for “microscope.”
(§7) The readout allows the determination of the fraction of cells which show a dissipation of the mitochondrial membrane potential strongly indicating an apoptotic cell death as a function of the treatment. The scores A, B, C and D are explained at the end of the Table.

tumor cells [6] = test: as above; conditions: JC-1, 48 h
Experimental: as §6
as §2, with “The final compound concentrations in the assays are in the range of 0.001 μM-10 μM.” left out, “JC-1 (Molecular Probes, T-3168)” for “Hoechst 33342 dye (Sigma B-2261)”, “microscope by using the FITC and TRITC filters.” for “microscope.”
as §7

[7] = MRC5 cells, read-out: Hoechst 33342 nuclear staining EC50, MRC5
[8] = PBL, read-out: Hoechst 33342 nuclear staining EC50, PBL
[9] = HeLa cells, read-out: Hoechst 33342 nuclear staining EC50, HeLa
[10] = Jily cells, read-out: Hoechst 33342 nuclear staining EC50, Jily
[11] = Jurkat cells, read-out: Hoechst 33342 nuclear staining EC50, Jurkat
[12] = HT1080 cells, read-out: MTS proliferation assay IC50, HT1080
[13] = HeLa cells, read-out: MTS proliferation assay IC50, HeLa
[14] = Jily cells, read-out: MTS proliferation assay IC50, Jily
[15] = Jurkat cells, read-out: MTS proliferation assay IC50, Jurkat
[16] = HeLa cells, read-out: Mitochondrial membrane potential (read-out 48 h) HeLa
[17] = Jily cells, read-out: Mitochondrial membrane potential (read-out 48 h) Jily
[18] = Jurkat cells, read-out: Mitochondrial membrane potential (read-out 48 h) Jurkat
[19] = MCF7 cells, read-out: Mitochondrial membrane potential (read-out 48 h) MCF7

Structure (SMILES)	EC50 [1, 8] [nM]	EC50 (tumor cells [2]; [9]) [nM]	EC50 (tumor cells [2]; [10]) [nM]	EC50 (tumor cells [2]; [11]) [nM]	IC50 (tumor cells [4]; [12]) [nM]	IC50 (tumor cells [4]; [13]) [nM]	IC50 (tumor cells [4]; [14]) [nM]	IC50 (tumor cells [4]; [15]) [nM]	EC50 [5] [nM]	EC50 (tumor cells [6]; [16]) [nM]	EC50 (tumor cells [6]; [17]) [nM]	EC50 (tumor cells [6]; [18]) [nM]	EC50 (tumor cells [6]; [19]) [nM]	EC50 [1, 7] [nM]	IC50 [3] [nM]
CCOc1ccccc1C(=O)c1oc2ccc(OC)cc2c1N [Example 47]	> 1000	10 to 100	< 10	< 10	< 10	10 to 100	< 10	< 10	> 1000	10 to 100	10 to 100	10 to 100	> 1000	10 to 100	10 to 100
CCOc1ccc(F)cc1C(=O)c1oc2ccc(OC)cc2c1NC(=O)OC [Example 49]	> 1000	100 to 1000	10 to 100	10 to 100	10 to 100	100 to 1000	10 to 100	10 to 100	> 1000	100 to 1000	10 to 100	10 to 100	> 1000	> 1000	10 to 100
CCOc1ccc(F)cc1C(=O)c1oc2ccc(OC)cc2c1NS(=O)(=O)N(C)C [Example 50]	> 1000	> 1000	100 to 1000	100 to 1000	> 1000	> 1000	100 to 1000	100 to 1000	> 1000	> 1000	> 1000	100 to 1000	> 1000	> 1000	> 1000
CCOc1ccccc1C(=O)c1oc2ccc(NC(=O)OC(C)(C)C)cc2c1N [Example 51]	> 1000	> 1000	> 1000	> 1000	> 1000	> 1000	> 1000	–	> 1000	> 1000	> 1000	> 1000	> 1000	> 1000	> 1000
CCOc1ccccc1C(=O)c1oc2ccc(N)cc2c1N [Example 52]	> 1000	> 1000	100 to 1000	100 to 1000	> 1000	> 1000	100 to 1000	–	> 1000	> 1000	100 to 1000	100 to 1000	> 1000	> 1000	> 1000
CCOc1ccc(F)cc1C(=O)c1oc2ccc(OC)cc2c1NS(C)(=O)=O [Example 54]	> 1000	100 to 1000	10 to 100	10 to 100	10 to 100	10 to 100	10 to 100	–	> 1000	100 to 1000	100 to 1000	10 to 100	10 to 100	100 to 1000	10 to 100
CCOc1ccccc1C(=O)c1oc2ccccc2c1N [Example 55]	> 1000	> 1000	100 to 1000	100 to 1000	100 to 1000	100 to 1000	10 to 100	10 to 100	> 1000	> 1000	10 to 100	100 to 1000	100 to 1000	> 1000	100 to 1000
CCOc1ccc(F)cc1C(=O)c1oc2ccccc2c1N [Example 56]	> 1000	100 to 1000	10 to 100	10 to 100	10 to 100	10 to 100	< 10	< 10	> 1000	100 to 1000	100 to 1000	10 to 100	100 to 1000	> 1000	10 to 100
CCOc1ccc(F)cc1C(=O)c1cc2cc(COC)ccc2o1 [Example 57]	> 1000	10 to 100	10 to 100	10 to 100	10 to 100	10 to 100	< 10	< 10	> 1000	100 to 1000	10 to 100	10 to 100	100 to 1000	100 to 1000	10 to 100
CCOc1ccccc1C(=O)c1oc2ccc([N+](=O)[O-])cc2c1N [Example 59]	> 1000	100 to 1000	100 to 1000	10 to 100	10 to 100	100 to 1000	10 to 100	10 to 100	> 1000	> 1000	100 to 1000	10 to 100	> 1000	> 1000	100 to 1000
COc1ccc2oc(C(=O)c3ccccc3OCC(F)(F)F)c(N)c2c1 [Example 60]	> 1000	100 to 1000	10 to 100	10 to 100	10 to 100	100 to 1000	10 to 100	10 to 100	> 1000	100 to 1000	10 to 100	10 to 100	> 1000	> 1000	100 to 1000

More lines, main results first:

EC50 [1, 8] [nM]	EC50 (tumor cells [2]; [9]) [nM]	EC50 (tumor cells [2]; [10]) [nM]	EC50 (tumor cells [2]; [11]) [nM]	IC50 (tumor cells [4]; [12]) [nM]	IC50 (tumor cells [4]; [13]) [nM]	IC50 (tumor cells [4]; [14]) [nM]	IC50 (tumor cells [4]; [15]) [nM]	EC50 [5] [nM]	EC50 (tumor cells [6]; [16]) [nM]	EC50 (tumor cells [6]; [17]) [nM]	EC50 (tumor cells [6]; [18]) [nM]	EC50 (tumor cells [6]; [19]) [nM]	Structure (SMILES)	EC50 [1, 7] [nM]	IC50 [3] [nM]
> 1000	10 to 100	< 10	< 10	< 10	10 to 100	< 10	< 10	> 1000	10 to 100	< 10	< 10	> 1000	CCOc1ccc(F)cc1C(=O)c1oc2ccc(C)cc2c1N [Example 62]	> 1000	< 10
> 1000	> 1000	> 1000	> 1000	> 1000	> 1000	> 1000	> 1000	> 1000	> 1000	> 1000	> 1000	> 1000	CCOc1ccc(F)cc1C(=O)c1cc2cc(OCc3ccccc3)ccc2o1 [Example 63]	> 1000	> 1000
> 1000	10 to 100	10 to 100	< 10	< 10	10 to 100	< 10	< 10	> 1000	10 to 100	10 to 100	< 10	> 1000	CCOc1ccc(F)cc1C(=O)c1cc2cc(OC(C)=O)ccc2o1 [Example 65]	100 to 1000	< 10
> 1000	100 to 1000	10 to 100	10 to 100	100 to 1000	10 to 100	< 10	–	> 1000	100 to 1000	10 to 100	10 to 100	> 1000	C=CCOc1ccc2oc(C(=O)c3cc(F)ccc3OCC)cc2c1 [Example 67]	> 1000	10 to 100
> 1000	100 to 1000	100 to 1000	100 to 1000	10 to 100	10 to 100	10 to 100	–	> 1000	> 1000	100 to 1000	100 to 1000	> 1000	CCOc1ccc(F)cc1C(=O)c1cc2cc(OC(C)C)ccc2o1 [Example 68]	100 to 1000	10 to 100
